Patent US6090787A, “Antithrombotic agents” (Eli Lilly and Company, priority 1999, dated 2000)
Square brackets hold non-standard residues; d marks the D form. Peptide text beside a SMILES is read from it. dPip = O=C(O)[C@H]1CCCCN1; Nleu = CC(C)CNCC(=O)O

Assays:
human plasma [1] = assay: Human plasma anticoagulation, thrombin time (TT); conditions: concentration required to double the thrombin time, linear extrapolation
Protocol: (§1) Dog plasma and rat plasma is obtained from conscious mixed-breed hounds (either sex, Hazelton-LRE, Kalamazoo, Mich., U.S.A.) or from anesthetized male Sprague-Dawley rats (Harlan Sprague-Dawley, Inc., Indianapolis, Ind., U.S.A.) by venipuncture into 3.8 percent citrate. Fibrinogen is prepared from in-date ACD human blood as the fraction I-2 according to previous procedures and specifications. Smith, Biochem. J., 185, 1-11 (1980); and Smith, et al., Biochemistry, 11, 2958-2967 (1972). Human fibrinogen is also purchased as 98 percent pure/plasmin free from American Diagnostica, Greenwich, Conn. Coagulation reagents ACTIN, Thromboplastin, and Human plasma are from Baxter Healthcare Corp., Dade Division, Miami, Fla. Bovine thrombin from Parke-Davis ([…], Mich.) is used for coagulation assays in plasma.
(§2) Coagulation assay procedures are as previously described. Smith, et al., Thrombosis Research, 50, 163-174 (1988). A CoAScreener coagulation instrument (American LABor, Inc.) is used for all coagulation assay measurements. The prothrombin time (PT) is measured by adding 0.05 mL saline and 0.05 mL Thromboplastin-C reagent to 0.05 mL test plasma. The activated partial thromboplastin time (APTT) is measured by incubation of 0.05 mL test plasma with 0.05 mL Actin reagent for 120 seconds followed by 0.05 mL CaCl2 (0.02 M). The thrombin time (TT) is measured by adding 0.05 mL saline and 0.05 mL thrombin (10 NIH units/mL) to 0.05 mL test plasma. The compounds of formula I are added to human or animal plasma over a wide range of concentrations to determine prolongation effects on the APTT, PT, and TT assays. Linear extrapolations are performed to estimate the concentrations required to double the clotting time for each assay.

Human plasmin = target: T1, Human plasmin (Homo sapiens, UniProt P00747); assay: Fibrinolytic protease selectivity, Kass, plasmin chromogenic assay; assay type: biochemical; conditions: apparent association constant
T1 construct: Human plasmin is purchased from Boehringer Mannheim; purchased Boehringer Mannheim, Indianapolis, Indiana
Protocol: (§3) By substantially following the procedures described above for human thrombin, and using other human blood coagulation system serine proteases and proteases of the fibrinolytic system with the appropriate chromogenic substrates, identified below, selectivity of the compounds of the present invention with respect to the coagulation factor serine proteases and with respect to the fibrinolytic system serine proteases are evaluated as well as their substantial lack of interference with serine proteases of the fibrinolytic system. Thrombin inhibitors preferably should spare fibrinolysis induced by urokinase, tissue plasminogen activator (t-PA) and streptokinase. This would be important to the therapeutic use of such agents as an adjunct to streptokinase, t-PA or urokinase thrombolytic therapy and to the use of such agents as an endogenous fibrinolysis-sparing (with respect to t-PA and urokinase) antithrombotic agent. In addition to the lack of interference with the amidase activity of the fibrinolytic proteases, such fibrinolytic system sparing can be studied by the use of human plasma clots and their lysis by the respective fibrinolytic plasminogen activators.
(§4) Human plasmin is purchased from Boehringer Mannheim, Indianapolis, Indiana; nt-PA is purchased as single chain activity reference from American Diagnostica, Greenwich, Conn.; modified-t-PA6 (mt-PA6) is prepared at Eli Lilly and Company by procedure known in the art (See, Burck, et al., J. Biol. Chem., 265, […] (1990). Plasmin chromogenic substrate H--D--Val--Leu--Lys--p--nitroanilide and tissue plasminogen activator (t-PA) substrate H--D--Ile--Pro--Arg--p--nitroanilide are purchased from Kabi Vitrum, Stockholm, Sweden.

human plasma [2] = assay: Human plasma anticoagulation, activated partial thromboplastin time (APTT); conditions: concentration required to double the APTT, linear extrapolation
Protocol: as §1, §2

human plasma [3] = assay: Human plasma anticoagulation, prothrombin time (PT); conditions: concentration required to double the PT, linear extrapolation
Protocol: as §1, §2

human thrombin = target: T2, human thrombin (Homo sapiens, UniProt P00734); assay: Inhibition of amidase activity of thrombin (Kass), chromogenic substrate; assay type: biochemical; conditions: apparent association constant, mean over a range of concentrations
T2 construct: purified human thrombin, Enzyme Research Laboratories; purchased Enzyme Research Laboratories, South Bend, Indiana
Protocol: The assay is carried out by mixing 50 μL buffer (0.03 M Tris, 0.15 M NaCl, pH 7.4) with 25 μL of bovine thrombin or human thrombin solution (0.21 mg/mL of thrombostat bovine thrombin, Parke-Davis, or purified human thrombin, Enzyme Research Laboratories, South Bend, Indiana, at about 8 NIH units/mL, in the same buffer) and 25 μL of test compound in a solvent (in 50% aqueous methanol, v:v). The 150 μL of an aqueous solution of the chromogenic substrate (at 0.25 mg/mL) are added and the rates of hydrolysis of the substrate are measured by monitoring the reactions at 405 nm for the release of p-nitroaniline. Standard curves are constructed by plotting free thrombin concentration against hydrolysis rate. The hydrolysis rates observed with test compounds are then converted to "free thrombin" values in the respective assays by use of the standard curves. The bound thrombin (bound to test compound) is calculated by subtracting the amount of free thrombin observed in each assay from the known initial amount of thrombin used in the assay. The amount of free inhibitor in each assay is calculated by subtracting the number of moles of bound thrombin from the number of moles of added inhibitor (test compound).
The Kass value is the hypothetical equilibrium constant for the reaction between thrombin and the test compound (I). [formula]
Kass is calculated for a range of concentrations of test compounds and the mean value is reported in units of liter per mole.

[4] = target: T3, tissue plasminogen activator (t-PA) (Homo sapiens, UniProt P00750); assay: Fibrinolytic protease selectivity, Kass, t-PA chromogenic assay; assay type: biochemical; conditions: apparent association constant
T3 construct: purchased American Diagnostica, Greenwich, Conn
Protocol: as §3, §4

factor Xa = target: T4, factor Xa (Homo sapiens, UniProt P00742); assay: Serine protease selectivity, Kass, factor Xa chromogenic assay; assay type: biochemical; conditions: apparent association constant
T4 construct: Human factors X, Xa, IXa, XIa, and XIIa are purchased from Enzyme Research Laboratories; purchased Enzyme Research Laboratories, South Bend, Ind
Protocol: as §3
(§5) Human factors X, Xa, IXa, XIa, and XIIa are purchased from Enzyme Research Laboratories, South Bend, Ind.; human urokinase from Leo Pharmaceuticals, Denmark; and recombinant activated Protein C (aPC) is prepared at Eli Lilly and Co. substantially according to U.S. Pat. No. 4,981,952 incorporated by reference herein in its entirety. Chromogenic substrates: N--Benzoyl--Ile--Glu--Gly--Arg--p--nitroanilide (for factor Xa); N--Cbz--D--Arg--Gly--Arg--p--nitroanilide (for factor IXa assay as the factor Xa substrate); Pyroglutamyl--Pro--Arg--p--nitroanilide (for Factor XIa and for aPC); H--D--Pro--Phe--Arg--p--nitroanilide (for factor XIIa); and Pyroglutamyl--Gly--Arg--p--nitroanilide (for urokinase); are purchased from KabiVitrum, Stockholm, Sweden, or from Midwest Biotech, Fishers, Indiana. Bovine trypsin is purchased from Worthington Biochemicals, Freehold, N.J., and human plasma kallikrein from Kabi Vitrum, Stockholm, Sweden. Chromogenic substrate H--D--Pro--Phe--Arg--p--nitroanilide for plasma kallikrein is purchased from Kabi Vitrum, Stockholm, Sweden. N--Benzoyl--Phe--Val--Arg--p--nitroanilide, the substrate for human thrombin and for trypsin, is synthesized according to procedures described above for the compounds of the present invention, using known methods of peptide coupling from commercially available reactants or purchased from Midwest Biotech, Fishers, Ind.

Bovine trypsin = target: T5, Bovine trypsin (Bos taurus, UniProt P00760); assay: Serine protease selectivity, Kass, trypsin chromogenic assay; assay type: biochemical; conditions: apparent association constant
T5 construct: purchased Worthington Biochemicals, Freehold, N.J
T5 sequence (P00760 24-246): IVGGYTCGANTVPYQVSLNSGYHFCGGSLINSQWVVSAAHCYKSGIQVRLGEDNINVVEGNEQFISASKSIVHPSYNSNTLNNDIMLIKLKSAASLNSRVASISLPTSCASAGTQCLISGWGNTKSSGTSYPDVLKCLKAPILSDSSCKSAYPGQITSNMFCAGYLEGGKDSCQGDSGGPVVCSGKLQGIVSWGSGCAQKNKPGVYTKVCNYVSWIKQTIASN
Protocol: as §3, §5

T3 sequence (P00750 36-562): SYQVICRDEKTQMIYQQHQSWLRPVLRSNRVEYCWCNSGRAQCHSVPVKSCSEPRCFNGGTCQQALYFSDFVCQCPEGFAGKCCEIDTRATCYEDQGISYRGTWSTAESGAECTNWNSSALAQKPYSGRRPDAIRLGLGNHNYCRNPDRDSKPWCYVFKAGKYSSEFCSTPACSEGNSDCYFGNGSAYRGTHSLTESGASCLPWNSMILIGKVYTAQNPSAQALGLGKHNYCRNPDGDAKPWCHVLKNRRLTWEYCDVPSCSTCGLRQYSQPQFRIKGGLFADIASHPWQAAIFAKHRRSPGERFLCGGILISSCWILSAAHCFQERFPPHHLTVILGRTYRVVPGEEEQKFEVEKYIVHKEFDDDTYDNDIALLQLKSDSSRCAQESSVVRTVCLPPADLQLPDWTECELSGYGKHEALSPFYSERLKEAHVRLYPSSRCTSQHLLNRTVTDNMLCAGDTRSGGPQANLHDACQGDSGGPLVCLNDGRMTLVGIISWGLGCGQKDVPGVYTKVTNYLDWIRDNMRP
T1 sequence (P00747 581-810 limits assumed): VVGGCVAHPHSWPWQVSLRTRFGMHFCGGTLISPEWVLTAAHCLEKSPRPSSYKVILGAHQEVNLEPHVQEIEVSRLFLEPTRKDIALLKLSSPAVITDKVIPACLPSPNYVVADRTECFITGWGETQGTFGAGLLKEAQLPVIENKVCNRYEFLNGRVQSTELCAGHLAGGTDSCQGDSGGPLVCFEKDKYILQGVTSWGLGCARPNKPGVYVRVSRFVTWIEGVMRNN
T1 sequence (P00747 97-580 partner limits assumed): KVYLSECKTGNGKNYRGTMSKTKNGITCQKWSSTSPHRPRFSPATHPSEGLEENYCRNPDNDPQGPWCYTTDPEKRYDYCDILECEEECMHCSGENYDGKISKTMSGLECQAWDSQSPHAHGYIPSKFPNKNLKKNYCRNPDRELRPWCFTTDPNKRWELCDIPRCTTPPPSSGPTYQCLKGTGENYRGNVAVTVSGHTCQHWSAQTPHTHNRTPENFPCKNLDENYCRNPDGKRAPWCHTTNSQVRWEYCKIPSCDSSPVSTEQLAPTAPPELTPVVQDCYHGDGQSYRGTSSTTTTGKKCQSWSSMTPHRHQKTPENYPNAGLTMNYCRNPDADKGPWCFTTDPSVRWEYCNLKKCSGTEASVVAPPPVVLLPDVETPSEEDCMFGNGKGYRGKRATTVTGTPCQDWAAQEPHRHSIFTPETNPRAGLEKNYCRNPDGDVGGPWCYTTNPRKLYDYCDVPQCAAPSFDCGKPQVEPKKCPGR
T4 sequence (P00742 235-488 limits assumed): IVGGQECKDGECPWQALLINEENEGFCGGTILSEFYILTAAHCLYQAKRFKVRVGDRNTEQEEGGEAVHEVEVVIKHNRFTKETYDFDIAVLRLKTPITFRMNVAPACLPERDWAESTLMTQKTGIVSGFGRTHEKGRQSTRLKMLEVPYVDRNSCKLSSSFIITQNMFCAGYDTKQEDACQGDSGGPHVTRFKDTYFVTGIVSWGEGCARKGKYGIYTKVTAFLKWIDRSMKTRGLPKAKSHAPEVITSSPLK
T4 sequence (P00742 41-179 partner limits assumed): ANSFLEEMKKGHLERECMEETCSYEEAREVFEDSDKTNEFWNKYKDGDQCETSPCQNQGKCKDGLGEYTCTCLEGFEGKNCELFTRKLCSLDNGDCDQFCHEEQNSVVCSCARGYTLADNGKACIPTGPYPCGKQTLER

Structure (SMILES): Cl.Cl.N=C(N)NCCC[C@@H](C=O)NC(=O)CN(CCc1ccccc1)C(=O)[C@@H]1CCCN1 [Example 19, L--Pro--N(CH2 CH2 Ph)Gly--ArgH.2HCl]
- Human Plasma Anticoagulation 2 × Clotting time TT (human plasma [1]): 490 ng/mL
- Enzyme Kass Plasmin (Human plasmin): 0.22 L/mol × 10^6
- Human Plasma Anticoagulation 2 × Clotting time APTT (human plasma [2]): 10,000 ng/mL
- Human Plasma Anticoagulation 2 × Clotting time PT (human plasma [3]): 10,000 ng/mL
- Enzyme Kass Human Thrombin (human thrombin): 0.64 L/mol × 10^6
- Enzyme Kass t-PA [4]: < 0.001 L/mol × 10^6
- Enzyme Kass Xa (factor Xa): 0.11 L/mol × 10^6
- Enzyme Kass Trypsin (Bovine trypsin): 0.22 L/mol × 10^6

Structure (SMILES): CC(C)CN(CC(=O)N[C@H](C=O)CCCNC(=N)N)C(=O)[C@H]1CCCCN1.Cl.Cl [Example 5, D--hPro--N(i--Bu)Gly--ArgH.2HCl] (H-[dPip]-[Nleu]-Arg-aldehyde)
- Human Plasma Anticoagulation 2 × Clotting time TT (human plasma [1]): 100 ng/mL
- Enzyme Kass Plasmin (Human plasmin): 0.050 L/mol × 10^6
- Human Plasma Anticoagulation 2 × Clotting time APTT (human plasma [2]): 3,800 ng/mL
- Human Plasma Anticoagulation 2 × Clotting time PT (human plasma [3]): 4,900 ng/mL
- Enzyme Kass Human Thrombin (human thrombin): 24 L/mol × 10^6
- Enzyme Kass t-PA [4]: 0.002 L/mol × 10^6
- Enzyme Kass Xa (factor Xa): 0.060 L/mol × 10^6
- Enzyme Kass Trypsin (Bovine trypsin): 1.6 L/mol × 10^6

Structure (SMILES): CNCC(=O)N(CCc1ccccc1)CC(=O)N[C@H](C=O)CCCNC(=N)N.Cl.Cl [Example 17, Sar--N(CH2 CH2 Ph)Gly--ArgH.2HCl]
- Human Plasma Anticoagulation 2 × Clotting time TT (human plasma [1]): 150 ng/mL
- Enzyme Kass Plasmin (Human plasmin): 0.20 L/mol × 10^6
- Human Plasma Anticoagulation 2 × Clotting time APTT (human plasma [2]): 2,200 ng/mL
- Human Plasma Anticoagulation 2 × Clotting time PT (human plasma [3]): 2,700 ng/mL
- Enzyme Kass Human Thrombin (human thrombin): 2.9 L/mol × 10^6
- Enzyme Kass t-PA [4]: 0.001 L/mol × 10^6
- Enzyme Kass Xa (factor Xa): 2.2 L/mol × 10^6
- Enzyme Kass Trypsin (Bovine trypsin): 0.38 L/mol × 10^6

Structure (SMILES): Cl.Cl.N=C(N)NCCC[C@@H](C=O)NC(=O)CN(CCC(=O)O)C(=O)[C@H]1CCCCN1 [Example 13, D--hPro--N(CH2 CH2 COOH)Gly--ArgH.2HCl]
- Human Plasma Anticoagulation 2 × Clotting time TT (human plasma [1]): 800 ng/mL
- Enzyme Kass Plasmin (Human plasmin): 0.015 L/mol × 10^6
- Human Plasma Anticoagulation 2 × Clotting time APTT (human plasma [2]): 21,000 ng/mL
- Human Plasma Anticoagulation 2 × Clotting time PT (human plasma [3]): 27,000 ng/mL
- Enzyme Kass Human Thrombin (human thrombin): 0.83 L/mol × 10^6
- Enzyme Kass t-PA [4]: 0.001 L/mol × 10^6
- Enzyme Kass Xa (factor Xa): 0.051 L/mol × 10^6
- Enzyme Kass Trypsin (Bovine trypsin): 0.48 L/mol × 10^6

Structure (SMILES): CCS(=O)(=O)N[C@H](Cc1ccccc1)C(=O)N(C)CC(=O)N[C@H](C=O)CCCNC(=N)N.Cl.Cl [Example 16, N-(ethylsulfonyl)-D-phenylalanyl-N-methylglycyl-L-argininal dihydrochloride]
- Human Plasma Anticoagulation 2 × Clotting time TT (human plasma [1]): 30 ng/mL
- Enzyme Kass Plasmin (Human plasmin): 1.5 L/mol × 10^6
- Human Plasma Anticoagulation 2 × Clotting time APTT (human plasma [2]): 1,200 ng/mL
- Human Plasma Anticoagulation 2 × Clotting time PT (human plasma [3]): 1,600 ng/mL
- Enzyme Kass Human Thrombin (human thrombin): 37 L/mol × 10^6
- Enzyme Kass t-PA [4]: 1.2 L/mol × 10^6
- Enzyme Kass Xa (factor Xa): 3.3 L/mol × 10^6
- Enzyme Kass Trypsin (Bovine trypsin): 22 L/mol × 10^6

Structure (SMILES): Cl.Cl.NC(N)=NCCC[C@@H](C=O)NC(=O)CN(CCc1ccccc1)C(=O)[C@H]1CCCN1 [Example 18, D--Pro--N(CH2 CH2 Ph)Gly--ArgH.2HCl]
- Human Plasma Anticoagulation 2 × Clotting time TT (human plasma [1]): 170 ng/mL
- Enzyme Kass Plasmin (Human plasmin): 0.34 L/mol × 10^6
- Human Plasma Anticoagulation 2 × Clotting time APTT (human plasma [2]): 3,300 ng/mL
- Human Plasma Anticoagulation 2 × Clotting time PT (human plasma [3]): 3,900 ng/mL
- Enzyme Kass Human Thrombin (human thrombin): 5.1 L/mol × 10^6
- Enzyme Kass t-PA [4]: 0.001 L/mol × 10^6
- Enzyme Kass Xa (factor Xa): 0.47 L/mol × 10^6
- Enzyme Kass Trypsin (Bovine trypsin): 1.1 L/mol × 10^6
